Measured values published in patent US12060347B2 (BRISTOL-MYERS SQUIBB COMPANY, priority 2016, dated 2024).
Where a name gives a salt, the structure may show the parent alone.

Target: T1, human PAR4 (Homo sapiens, UniProt Q96RI0)
T1 construct: expressed in transfected cells; host or cells: HEK293 PAR4 Clone 1.2A (BMS Arctic ID 383940)
T1 sequence (Q96RI0 18-385): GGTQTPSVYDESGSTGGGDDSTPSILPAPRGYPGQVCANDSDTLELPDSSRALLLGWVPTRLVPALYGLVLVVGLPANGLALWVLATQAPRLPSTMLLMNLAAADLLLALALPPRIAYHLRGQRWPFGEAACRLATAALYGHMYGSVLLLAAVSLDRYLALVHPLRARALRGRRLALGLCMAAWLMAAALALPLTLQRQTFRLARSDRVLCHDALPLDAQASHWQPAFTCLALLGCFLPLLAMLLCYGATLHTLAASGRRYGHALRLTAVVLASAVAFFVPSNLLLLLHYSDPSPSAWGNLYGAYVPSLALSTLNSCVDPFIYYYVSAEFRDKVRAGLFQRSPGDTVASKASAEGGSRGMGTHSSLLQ
Assay: PAR4 FLIPR assay: antagonism of agonist-peptide-induced calcium mobilization in PAR4-expressing HEK293 cells
Type: cell-based
Settings: H-Ala-Phe(4-F)-[…]NH2-induced intracellular calcium mobilization, 11-point curves

SMILES	IC50 [nM]
C[C@H](Oc1cc2sc(-c3cc(Cl)cc4cc(OC(F)F)cnc34)nc2cc1F)[C@@H](C)OC(=O)Nc1cnc(OCCO)nc1 [Example 515, (2R,3S)-3-((2-(6-chloro-3-(difluoromethoxy)quinolin-8-yl)-5-fluorobenzo[d]thiazol-6-yl)oxy)butan-2-yl (2-(2-hydroxyethoxy)pyrimidin-5-yl)carbamate]	2.6
CC[C@H](COc1cc2sc(-c3cc(C)cc4nc(OC)cnc34)nc2cc1F)OC(=O)Nc1cccnc1 [Example 517, (R)-1-((5-fluoro-2-(2-methoxy-7-methylquinoxalin-5-yl)benzo[d]thiazol-6-yl)oxy)butan-2-yl pyridin-3-ylcarbamate]	1.1
COc1cnc2c(-c3nc4c(Cl)c(F)c(OCCCC(=O)Nc5cccnc5)cc4s3)cc(C)cc2n1 [Example 518, 4-((4-chloro-5-fluoro-2-(2-methoxy-7-methylquinoxalin-5-yl)benzo[d]thiazol-6-yl)oxy)-N-(pyridin-3-yl)butanamide]	13
COc1cnc2c(-c3nc4c(Cl)c(F)c(OCCNC(=O)Nc5cccnc5)cc4s3)cc(C)cc2n1 [Example 519, 1-(2-((4-chloro-5-fluoro-2-(2-methoxy-7-methylquinoxalin-5-yl)benzo[d]thiazol-6-yl)oxy)ethyl)-3-(pyridin-3-yl)urea]	16
COc1cnc2c(-c3nc4c(Cl)c(F)c(OCCN(C)C(=O)Nc5cnc(C)nc5)cc4s3)cc(C)cc2n1 [Example 520, 1-(2-((4-chloro-5-fluoro-2-(2-methoxy-7-methylquinoxalin-5-yl)benzo[d]thiazol-6-yl)oxy)ethyl)-1-methyl-3-(2-methylpyrimidin-5-yl)urea]	77
COc1cnc2c(-c3nc4cc(F)c(O[C@@H](C)[C@@H](C)OC(=O)Nc5ccc(CN6CCOCC6)nc5)cc4s3)cc(C)cc2n1 [Example 521, (2R,3S)-3-((5-fluoro-2-(2-methoxy-7-methylquinoxalin-5-yl)benzo[d]thiazol-6-yl)oxy) butan-2-yl (6-(morpholinomethyl)pyridin-3-yl)carbamate]	24
Cc1cc(-c2nc3cc(F)c(O[C@@H](C)[C@@H](C)OC(=O)Nc4cnc(C)nc4)cc3s2)c2ncc(N(C)C)nc2c1 [Example 522, (2R,3S)-3-((2-(2-(dimethylamino)-7-methylquinoxalin-5-yl)-5-fluorobenzo[d]thiazol-6-yl)oxy)butan-2-yl (2-methylpyrimidin-5-yl)carbamate]	20
COc1cnc2c(-c3nc4cc(F)c(O[C@@H](C)[C@@H](C)OC(=O)Nc5ccc(C(=O)O)nc5)cc4s3)cc(C)cc2n1 [Example 523, 5-(((((2R,3S)-3-((5-fluoro-2-(2-methoxy-7-methylquinoxalin-5-yl)benzo[d]thiazol-6-yl)oxy)butan-2-yl)oxy)carbonyl)amino)picolinic acid, TFA]	2.6
COc1cnc2c(-c3nc4cc(F)c(O[C@@H](C)[C@@H](C)OC(N)=O)cc4s3)cc(C)cc2n1 [Example 524, (2R,3S)-3-((5-fluoro-2-(2-methoxy-7-methylquinoxalin-5-yl)benzo[d]thiazol-6-yl)oxy) butan-2-yl carbamate]	84
CCOc1cnc2c(-c3nc4cc(F)c(O[C@@H](C)[C@@H](C)OC(=O)Nc5ccc(CCO)nc5)cc4s3)cc(C)cc2n1 [Example 526, (2R,3S)-3-((2-(2-ethoxy-7-methylquinoxalin-5-yl)-5-fluorobenzo[d]thiazol-6-yl)oxy)butan-2-yl (6-(2-hydroxyethyl)pyridin-3-yl)carbamate]	2
CCOc1cnc2c(-c3nc4cc(F)c(O[C@@H](C)[C@@H](C)OC(=O)Nc5ccc(C(=O)NCC(C)(C)O)nc5)cc4s3)cc(C)cc2n1 [Example 527, (2R,3S)-3-((2-(2-ethoxy-7-methylquinoxalin-5-yl)-5-fluorobenzo[d]thiazol-6-yl)oxy)butan-2-yl (6-((2-hydroxy-2-methylpropyl)carbamoyl)pyridin-3-yl)carbamate]	1.4
[2H]C([2H])(O)c1ncc(NC(=O)O[C@H](C)[C@H](C)Oc2cc3sc(-c4cc(C)cc5nc(OC)cnc45)nc3cc2F)cn1 [Example 528, (2R,3S)-3-((5-fluoro-2-(2-methoxy-7-methylquinoxalin-5-yl)benzo[d]thiazol-6-yl)oxy)butan-2-yl (2-(hydroxymethyl)pyrimidin-5-yl)carbamate]	5
CCOc1cnc2c(-c3nc4cc(F)c(O[C@@H](C)[C@@H](C)OC(=O)Nc5cnc(CO)nc5)cc4s3)cc(C)cc2n1 [Example 529, (2R,3S)-3-((2-(2-ethoxy-7-methylquinoxalin-5-yl)-5-fluorobenzo[d]thiazol-6-yl)oxy)butan-2-yl (2-(hydroxymethyl)pyrimidin-5-yl)carbamate]	0.9
COc1cnc2c(-c3nc4cc(F)c(OC[C@@H](C)OC(=O)Nc5ccc(C(=O)NCC(C)(C)OP(=O)(O)O)nc5)cc4s3)cc(C)cc2n1 [Example 530, (R)-1-((5-fluoro-2-(2-methoxy-7-methylquinoxalin-5-yl)benzo[d]thiazol-6-yl)oxy) propan-2-yl (6-((2-methyl-2-(phosphonooxy)propyl)carbamoyl)pyridin-3-yl)carbamate, TFA]	1.8
CCOc1cnc2c(-c3nc4cc(F)c(O[C@@H](C)[C@@H](C)OC(=O)Nc5ccc(C(=O)NC[C@H](C)O)nc5)cc4s3)cc(C)cc2n1 [Example 531, (2R,3S)-3-((2-(2-ethoxy-7-methylquinoxalin-5-yl)-5-fluorobenzo[d]thiazol-6-yl)oxy)butan-2-yl (6-(((S)-2-hydroxypropyl)carbamoyl)pyridin-3-yl)carbamate, TFA]	0.7
CCOc1cnc2c(-c3nc4cc(F)c(O[C@@H](C)[C@@H](C)OC(=O)Nc5cnc(COP(=O)(O)O)nc5)cc4s3)cc(C)cc2n1 [Example 532, (2R,3S)-3-((2-(2-ethoxy-7-methylquinoxalin-5-yl)-5-fluorobenzo[d]thiazol-6-yl)oxy)butan-2-yl (2-((phosphonooxy)methyl)pyrimidin-5-yl)carbamate]	1.7
COc1cnc2c(-c3nc4cc(F)c(O[C@@H](C)[C@@H](C)OC(=O)Nc5cncc(O)c5)cc4s3)cc(C)cc2n1 [Example 533, (2R,3S)-3-((5-fluoro-2-(2-methoxy-7-methylquinoxalin-5-yl)benzo[d]thiazol-6-yl)oxy)butan-2-yl (5-hydroxypyridin-3-yl)carbamate]	0.7
COc1cnc2c(-c3nc4cc(F)c(O[C@@H](C)[C@@H](C)OC(=O)Nc5cncc(OCCO)c5)cc4s3)cc(C)cc2n1 [Example 534, (2R,3S)-3-((5-fluoro-2-(2-methoxy-7-methylquinoxalin-5-yl)benzo[d]thiazol-6-yl)oxy) butan-2-yl (5-(2-hydroxyethoxy)pyridin-3-yl)carbamate]	0.9
CCOc1cnc2c(-c3nc4cc(F)c(O[C@@H](C)[C@@H](C)OC(=O)Nc5cnc([C@H](C)O)nc5)cc4s3)cc(C)cc2n1 [Example 535, (2R,3S)-3-((2-(2-ethoxy-7-methylquinoxalin-5-yl)-5-fluorobenzo[d]thiazol-6-yl)oxy)butan-2-yl (2-((S)-1-hydroxyethyl)pyrimidin-5-yl)carbamate]	5.2
CCOc1cnc2c(-c3nc4cc(F)c(O[C@@H](C)[C@@H](C)OC(=O)Nc5cnc([C@@H](C)O)nc5)cc4s3)cc(C)cc2n1 [Example 536, (2R,3S)-3-((2-(2-ethoxy-7-methylquinoxalin-5-yl)-5-fluorobenzo[d]thiazol-6-yl)oxy) butan-2-yl (2-((R)-1-hydroxyethyl)pyrimidin-5-yl)carbamate]	4.9
COc1cnc2c(-c3nc4cc(F)c(O[C@@H](C)[C@@H](C)OC(=O)Nc5cnc(CO)nc5)cc4s3)cc(Cl)cc2c1 [Example 539, (2R,3S)-3-((2-(6-chloro-3-methoxyquinolin-8-yl)-5-fluorobenzo[d]thiazol-6-yl)oxy)butan-2-yl (2-(hydroxymethyl)pyrimidin-5-yl)carbamate]	6.5
COc1cnc2c(-c3nc4cc(F)c(O[C@@H](C)[C@@H](C)OC(=O)Nc5cnc(OC[C@@H](C)O)nc5)cc4s3)cc(Cl)cc2c1 [Example 540, (2R,3S)-3-((2-(6-chloro-3-methoxyquinolin-8-yl)-5-fluorobenzo[d]thiazol-6-yl)oxy)butan-2-yl (2-((R)-2-hydroxypropoxy)pyrimidin-5-yl)carbamate]	3
COc1cnc2c(-c3nc4cc(F)c(O[C@@H](C)[C@@H](C)OC(=O)Nc5cnc(OC[C@H](C)O)nc5)cc4s3)cc(Cl)cc2c1 [Example 541, (2R,3S)-3-((2-(6-chloro-3-methoxyquinolin-8-yl)-5-fluorobenzo[d]thiazol-6-yl)oxy)butan-2-yl (2-((S)-2-hydroxypropoxy)pyrimidin-5-yl)carbamate]	3.4
COc1cnc2c(-c3nc4c(Cl)c(F)c(OC[C@@H](C)OC(=O)Nc5ccc(CCO)nc5)cc4s3)cc(C)cc2n1 [Example 542, (R)-1-((4-chloro-5-fluoro-2-(2-methoxy-7-methylquinoxalin-5-yl)benzo[d]thiazol-6-yl)oxy)propan-2-yl (6-(2-hydroxyethyl)pyridin-3-yl)carbamate]	1.6
COc1cnc2c(-c3nc4cc(F)c(OC[C@@H](C)OC(=O)Nc5ccc(CCO)nc5)cc4s3)cc(C)cc2n1 [Example 543, (R)-1-((5-fluoro-2-(2-methoxy-7-methylquinoxalin-5-yl)benzo[d]thiazol-6-yl)oxy)propan-2-yl (6-(2-hydroxyethyl)pyridin-3-yl)carbamate]	1.3
